# Laboratory results taken from patent US10751324B2, “Treatment of TNF- alpha cytotoxicity” (The University of Chicago, priority 2016, dated 2020).
# Legend:
# [1] = test system: BAD; test: TNFα-induced BAD mitochondrial translocation in fibroblasts pre-treated with actin stress fiber modulators; type: cell-based, mouse; conditions: for BAD mitochondrial translocation with non-cytotoxic dose TNFα: pre-treated 1 hour (1 μg/ml Cytochalasin D or 2.5 μg/ml Latrunculin B), 5 ng/ml TNFα 4 hours, FIG. 10E, 10G; for cytotoxic dose TNFα-induced BAD mitochondrial translocation: pre-treated 1 hour (30 nM Jasplakinolide or 5 μM S1P), then 80 ng/ml TNFα, FIG. 10A, 10C
# Protocol: Immunoprecipitation was performed as previously described (12). Caspase 3 assay was performed with Casp-3 cellular activity assay kit using Casp-3 substrate Ac-DEVD-pNA (Calbiochem). Active RhoA, active Src, and active Cdc42 assays were performed with G-LISA assay biochemical kit (Cytoskeleton, Inc.). Active GEF-H1 assay was performed by using GST-RhoA(G17A) to pull down the active GEF-H1 from cell extracts and analyzed by immunoblotting. Cytosol and mitochondria fractionations were prepared by the cytosol/mitochondria fractionation kit (Biovision), according to the manufacturer protocol. Cytoskeleton precipitation and G-actin/F-actin assay were performed by the G-actin/F-actin in vivo assay biochem kit (Cytoskeleton, Inc.)
# (§1) WT and Bad-deficient fibroblasts were pre-treated with 30 nM Jasplakinolide (FIG. 10A and FIG. 10B), 5 μM Sphingosine-1-phosphate (S1P) (FIG. 10C and FIG. 10D) or DMSO (control) for 1 hour, followed by stimulation with or without 80 ng/ml TNFα for various times, as indicated. Cell extracts were separated into cytosol and mitochondrial fractions. Subcellular localizations of BAD and IKK-phosphorylated BAD were determined. ß-actin, BCL-xL, and COX-2 were used as control (FIG. 10A and FIG. 10C). Apoptotic cells were identified by Annexin V and PI staining, followed by flow cytometric analysis. Data are as means±s.d. **, P<0.01, as analyzed by two-tailed Student's t test (FIG. 10B and FIG. 10D).
# (§2) WT and Bad-deficient fibroblasts were pretreated with 1 μg/ml Cytochalasin D (FIG. 10E and FIG. 10F), 2.5 μg/ml Latrunculin B (FIG. 10G and FIG. 10H), or DMSO (control) for 1 hours, followed by stimulation with or without 5 ng/ml or 80 ng/ml TNFα for 4 hours (FIG. 10E and FIG. 10G) or 12 hours (FIG. 10F and FIG. 10H). Cell extracts were separated into cytosol and mitochondrial fractions. Subcellular localizations of BAD and IKK phosphorylated BAD were determined. ß-actin, BCL-xL, and COX-2 were used as control (FIG. 10E and FIG. 10G). Apoptotic cells were identified by Annexin V and PI staining, followed by flow cytometric analysis. Data are means±s.d. and represent three individual experiments. **, P<0.01, as analyzed by two-tailed Student's t test (FIG. 10B, FIG. 10D, FIG. 10F, and FIG. 10H).
# [2] = test system: WT fibroblasts; test: TNFα-induced apoptosis in fibroblasts pre-treated with actin stress fiber modulators, Annexin V/PI flow cytometry; type: cell-based, mouse; conditions: for apoptosis with non-cytotoxic dose TNFα: pre-treated 1 hour (1 μg/ml Cytochalasin D or 2.5 μg/ml Latrunculin B), 5 ng/ml TNFα 12 hours, FIG. 10F, 10H; for cytotoxic dose TNFα-induced apoptosis: pre-treated 1 hour (30 nM Jasplakinolide or 5 μM S1P), then 80 ng/ml TNFα, FIG. 10B, 10D
# Protocol: Annexin V and propidium iodide (PI) staining was performed with FITC Annexin V apoptosis Detection kit (BD Pharmingen). Apoptotic cells were analyzed by FACS canto flow cytometer (BD Biosciences).
# as §1, §2
# [3] = test system: wild type mice subjected to CLP surgery; test: Polymicrobial infection model (cecal ligation and puncture, CLP), mortality rate; type: in vivo, mouse; conditions: 2.5 mg/kg i.p. 6 hours before CLP and each 12 hours after surgery; n=10, p<0.01; FIG. 20B
# Protocol: Wild type C57B6/J6 mice were maintained in a specific pathogen-free facility and housed on a 12:12-hour light/dark photoperiod at an ambient temperature of 22° C.±2° C. All animal experiments were conducted in accordance with the protocols approved by the Institutional Animal Care and Use Committee of the University of Chicago. 6-8 week old male mice were used for all of the experiments. The bacterial infusion model was performed by intraperitoneal (i.p.) injection of E. coli (ATCC 25922; 3×10^7 CFU). For the polymicrobial infection model, the CLP procedure was performed. The severity of CLP was adjusted to a high-grade sepsis. For the mock CLP procedure (Sham), mice underwent the same abdominal surgery as CLP procedure, except were not subject to the cecal ligation and puncture. Inhibitor treatments were performed using i.p. injection of the compound at a dose of 2.5 mg/kg body weight. Same amount of DMSO were i.p. injected as a control. […] Mortality rates were recorded for up to 120 hours for the CLP model and 50-60 hours for the E. coli model after the treatment and dying mice were pre-moved. […]
# In these experiments, wild type mice were i.p injected with or without saracatinib (2.5 mg/kg body weight) for 6 hours, then challenged with E. coli (5×10^7CFU, i.p. injection). […] Mortality rate was determined (FIG. 20A); n=6, p<0.01. […] Mortality rate was determined (FIG. 20B); n=10, p<0.01.
# [4] = test system: BAD; test: Cytotoxic dose TNFα-induced BAD translocation to mitochondria, cell fractionation and immunoblotting in MEFs; conditions: MEFs pre-treated with different doses 1 hour, cytotoxic TNFα 4 hours; FIG. 19B
# [5] = target: T1, IKKß (Mus musculus, UniProt O88351); test: IKKß phosphorylation by immunoblotting in TNFα-treated MEFs ("in vitro kinase assay"); type: cell-based; conditions: MEFs pre-treated with different doses for 1 hour, then cytotoxic TNFα 15 min; immunoblot, FIG. 17
# T1 construct: Total cell lysate was prepared for western blotting analysis; endogenous in cells; host or cells: mouse embryonic fibroblasts (MEFs)
# T1 sequence (O88351 1-757): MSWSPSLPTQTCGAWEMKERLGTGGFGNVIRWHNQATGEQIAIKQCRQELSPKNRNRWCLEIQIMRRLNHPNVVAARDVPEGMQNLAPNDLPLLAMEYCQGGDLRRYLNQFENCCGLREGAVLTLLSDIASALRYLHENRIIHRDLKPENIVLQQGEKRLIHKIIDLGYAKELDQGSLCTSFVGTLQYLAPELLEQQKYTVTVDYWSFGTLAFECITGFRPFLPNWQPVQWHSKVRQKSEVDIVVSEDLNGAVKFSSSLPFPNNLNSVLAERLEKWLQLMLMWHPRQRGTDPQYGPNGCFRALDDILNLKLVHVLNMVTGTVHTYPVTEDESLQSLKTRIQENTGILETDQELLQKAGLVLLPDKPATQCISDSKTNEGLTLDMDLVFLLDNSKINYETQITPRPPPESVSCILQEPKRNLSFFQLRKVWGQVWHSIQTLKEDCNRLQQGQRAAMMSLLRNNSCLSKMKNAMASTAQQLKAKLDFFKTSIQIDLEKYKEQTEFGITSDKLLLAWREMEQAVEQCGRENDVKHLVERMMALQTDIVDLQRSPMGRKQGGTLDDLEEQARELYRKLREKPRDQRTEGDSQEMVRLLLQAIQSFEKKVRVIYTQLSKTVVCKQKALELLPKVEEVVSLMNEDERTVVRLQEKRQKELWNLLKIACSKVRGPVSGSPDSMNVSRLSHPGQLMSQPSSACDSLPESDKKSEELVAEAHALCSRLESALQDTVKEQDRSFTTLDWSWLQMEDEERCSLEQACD
smiles,measurement,setting,value
"C=C1[C@@H](C)[C@H]2[C@H](Cc3ccccc3)NC(=O)[C@]23[C@H](OC(C)=O)/C=C/[C@@](C)(O)C(=O)[C@@H](C)C/C=C/[C@H]3[C@@H]1O [cytochalasin D, Cytochalasin D]",BAD mitochondrial translocation with non-cytotoxic dose TNFα,[1],induced
same,apoptosis with non-cytotoxic dose TNFα,[2],induced
"CCCCCCCCCCCCC/C=C/[C@@H](O)[C@@H](N)COP(=O)(O)O [sphingosine-1-phosphate, Sphingosine-1-phosphate]",cytotoxic dose TNFα-induced BAD mitochondrial translocation,[1],significantly reduced
same,cytotoxic dose TNFα-induced apoptosis,[2],significantly reduced
[2H]C([2H])([2H])N1CCN(CCOc2cc(OC3CCOCC3)c3c(Nc4c(Cl)ccc5c4OCO5)ncnc3c2)CC1 [ZG5129],polymicrobial infection-induced severe sepsis (mortality rate),[3],inhibit
"C/C1=C/C(=O)O[C@@H]2C[C@@H](CC[C@H](C)/C=C\CC1)O[C@@](O)([C@@H]1CSC(=O)N1)C2 [latrunculin B, Latrunculin B]",BAD mitochondrial translocation with non-cytotoxic dose TNFα,[1],induced
same,apoptosis with non-cytotoxic dose TNFα,[2],induced
C/C1=C\[C@H](C)C[C@H](C)OC(=O)C[C@H](c2ccc(O)cc2)NC(=O)[C@@H](Cc2c(Br)[nH]c3ccccc23)N(C)C(=O)[C@H](C)NC(=O)[C@@H](C)C1 [Jasplakinolide],cytotoxic dose TNFα-induced BAD mitochondrial translocation,[1],significantly reduced
same,cytotoxic dose TNFα-induced apoptosis,[2],significantly reduced
CN1CCN(CCOc2cc(OC3CCOCC3)c3c(Nc4c(Cl)ccc5c4OCO5)ncnc3c2)CC1 [saracatinib],cytotoxic dose TNFα-induced BAD translocation to mitochondria,[4],inhibit
"Cc1nc(Nc2ncc(C(=O)Nc3c(C)cccc3Cl)s2)cc(N2CCN(CCO)CC2)n1.O [dasatinib, N-(2-chloro-6-methylphenyl)-2-[[6-[4-(2-hydroxyethyl)-1-piperazinyl]-2-methyl-4-pyrimidinyl]amino]-5-thiazole carboxamide monohydrate]",IKK phosphorylation,[5],do not inhibit
same,cytotoxic dose TNFα-induced BAD translocation to mitochondria,[4],inhibit
